Laboratory results as given in patent US7556938B1, “Nucleic acids encoding potassium channel interactors” (Millennium Pharmaceuticals, Inc., priority 1998, dated 2009).

Assays:
Kv4.3/KChIP1 = target: T1, Kv4.3/KChIP1 (Rattus norvegicus, UniProt Q62897); test: Fatty acid modulation of Kv4.3/KChIP1 current in Xenopus oocytes; assay type: cell-based
T1 sequence (Q62897 1-655): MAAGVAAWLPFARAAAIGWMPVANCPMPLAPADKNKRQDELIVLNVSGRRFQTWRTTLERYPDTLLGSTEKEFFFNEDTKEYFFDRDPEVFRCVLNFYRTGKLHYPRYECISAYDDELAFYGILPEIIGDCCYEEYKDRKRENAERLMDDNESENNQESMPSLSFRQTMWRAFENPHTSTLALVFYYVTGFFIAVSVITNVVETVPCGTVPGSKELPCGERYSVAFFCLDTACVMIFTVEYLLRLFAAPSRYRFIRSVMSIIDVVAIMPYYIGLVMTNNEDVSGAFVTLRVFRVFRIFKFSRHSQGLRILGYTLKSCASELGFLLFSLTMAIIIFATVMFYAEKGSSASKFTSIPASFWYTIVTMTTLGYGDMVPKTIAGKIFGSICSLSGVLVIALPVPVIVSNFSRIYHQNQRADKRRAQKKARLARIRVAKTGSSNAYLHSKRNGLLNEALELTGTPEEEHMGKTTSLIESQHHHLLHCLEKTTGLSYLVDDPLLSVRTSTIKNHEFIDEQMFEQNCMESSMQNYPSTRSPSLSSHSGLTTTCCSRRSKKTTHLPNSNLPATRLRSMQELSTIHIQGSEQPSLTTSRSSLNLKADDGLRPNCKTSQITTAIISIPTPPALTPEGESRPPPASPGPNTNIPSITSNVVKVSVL
T1 sequence (Q8R426 1-216 isoform Q8R426-2 partner): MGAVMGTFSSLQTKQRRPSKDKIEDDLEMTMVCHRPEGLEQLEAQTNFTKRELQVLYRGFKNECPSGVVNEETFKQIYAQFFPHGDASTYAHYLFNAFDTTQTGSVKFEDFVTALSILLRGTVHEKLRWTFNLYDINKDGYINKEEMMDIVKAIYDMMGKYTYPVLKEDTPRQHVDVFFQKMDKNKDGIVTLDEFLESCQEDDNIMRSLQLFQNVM
Description: Frogs underwent no more than two surgeries and surgeries were performed by well established techniques. Frogs were anesthetized with ice. Total cRNA (1-10 ng) was injected into stage IV Xenopus oocytes that were harvested the previous day. The Xenopus oocytes were incubated in ND96 containing (in mM) 96 NaCl, 2 KCl, 1.8 CaCl2, 1 MgCl2, 5 HEPES, pH 7.6, plus (Gentamycin 50 μg/ml) at 18° C. Xenopus oocytes were studied 3-7 days after injection. The two-electrode voltage-clamp recordings were performed in ND96 solution using a TURBO TEC 03 Clamp Amplifier (ALA Scientific Instruments, Westbury, N.Y.). Both electrodes were filled with 3 M KCl and had electrode resistances ranging from 0.2-1 MOhm. The current signals were filtered at 1000 Hz before transferred on a PC (Gateway, Calif.) using the PULSE software (HEKA, Germany). In this Example, the hypothesis that […] were the missing auxiliary subunits that accounted for the above kinetic discrepancy was investigated by expressing Kv4 alone or together with […] in both CHO cells and Xenopus oocytes, and measuring their inactivation time constants (using art known techniques as described in, for example, An et al. (2000) Nature 403:553-6; Keros, S. and […]. Neuroscience 17: 3476-87; and Villarroel, A. and […]. Neuroscience 16:2522-32). The effects of different concentrations of arachidonic acid on Kv4/KChIP current was studied in Xenopus oocytes. Because the physiological concentrations of arachidonic acid are often under 10 μM (Needleman, et al., 1986 Annu Rev Biochem 55:69-102; Anderson and Welsh, 1990, Proc Natl Acad Sci USA 87:7334-8; Meves, 1994, Prog Neurobiol 43:175-86), arachidonic acid was tested in the 1-10 μM range. […] Further, the slope of amplitude reduction as a function of increasing concentrations was very similar with or without the presence of […]. […] Villarroel and Schwarz, (1996) J.

Kv4 α subunits = details: in oocytes; Villarroel and Schwarz (1996); read-out: IC50 of arachidonic acid on Kv4 α subunits; cited from earlier work
[1] = Kv4.3/KChIP1, 10 μM AA, listed as AA

Inactivation time constant (ms ± SEM) (Kv4.3/KChIP1; [1]): 55 ± 4 ms
Peak amplitude (μA ± SEM) (Kv4.3/KChIP1; [1]): 21±4 μA
block of Kv4.3 peak amplitude (Kv4.3/KChIP1; Kv4.3/KChIP1, 10 μM fatty acid, vs no-fatty acid control): inhibited significantly
block of Kv4.3 peak amplitude (Kv4.3/KChIP1; Kv4.3/KChIP1, 1-10 μM arachidonic acid): concentration-dependent block
effect on Kv4.3 inactivation time constant (Kv4.3/KChIP1; Kv4.3 co-expressed with KChIP1, 10 μM fatty acid): reduced Kv4.3 inactivation time constant
Compound: CCCCC/C=C\C/C=C\C/C=C\C/C=C\CCCC(=O)O [arachidonic acid]
effect on inactivation time constant (Kv4.3/KChIP1; presence of KChIP1, 1-10 μM arachidonic acid): decreased in a concentration-dependent manner
IC50 (Kv4 α subunits): ~8 µM
